# Measurements published in patent US20230109010A1, “PESTICIDE COMPOSITIONS WITH SUPRAMOLECULAR STRUCTURES FOR AGRICULTURAL USE” (BPS JUST ENERGY TECHNOLOGY, LLC, priority 2020, published 2023).
# What was measured:
# palmer amaranth [1] = assay: Field trial in corn, herbicide applied 3 days after planting, % weed control; assay type: in vivo, Amaranthus palmeri
# Procedure: (§1) The herbicides tested were acetochlor and s-metolachlor. Each herbicide was combined at the specified rate with either deionized water or SymMAX™ supramolecular host chemistry that is commercially available from Shotwell Hydrogenics at 15 gallons per acre (GPA). Specified rates for acetochlor were 0.5 parts per acre, 1 part per acre, and 2 parts per acre. […]
# (§2) This example was conducted as a 4 replicate, RCBD (randomized control block design) in Quitman, GA. An untreated control was used as a standard that provided no weed control and no phytotoxicity. All treatments were compared to the untreated control. Counted dead weeds and living weeds were used to determine % weed control. The untreated control was also used to determine % crop phytotoxicity for the crop. Typical indications of phytotoxicity include chlorosis, stunting, epinasty, and/or leaf burn.
# (§3) The trial ran for 28 days with weekly data assessments taken on % crop phytotoxicity and % weed control of three key species: palmer amaranth (Amaranthus palmeri), fall panicum (Panicum dichotomiflorum) and large crabgrass (Digitaria sanguinalis). The test field was over seeded with weed seed obtained from the University of Georgia prior to corn planting. Treatments were applied 3 days after planting as a broadcast application at various rates ranging from about 0.5 parts per acre to about 2 parts per acre. Tables 1-4 show the % weed control when the weeds are treated with acetachlor. Tables 4-8 show the % weed control when the weeds are treated with s-metolachlor.
# large crabgrass [2] = assay: as above; assay type: in vivo, Digitaria sanguinalis
# Procedure: as §1, §2, §3
# fall panicum [3] = assay: as above; assay type: in vivo, Panicum dichotomiflorum
# Procedure: as §1, §2, §3
# fall panicum [4] = assay: Field trial in corn at V3, broadcast treatment on 2-4 inch weeds, % weed control; assay type: in vivo, Panicum dichotomiflorum
# Source text: (§4) The herbicides tested were glufosinate, glyphosate, and mesotrione. Each herbicide was combined at the specified rate with either deionized water or SymMAX™ supramolecular host water mixture commercially available from Shotwell Hydrogenics at 15 gallons per acre (GPA). Specified rates for glufosinate were 22 ounces per acre, 11 ounces per acre, and 5.5 ounces per acre. Specified rates for glyphosate were 22 ounces per acre, 11 ounces per acre, and 5.5 ounces per acre. Specified rates for mesotrione were 3 ounces per acre, 2 ounces per acre, and 1 ounce per acre.
# as §2
# (§5) The trial ran for 14 days with weekly data assessments taken on % crop phytotoxicity and % weed control of four key species: palmer amaranth (Amaranthus palmeri), ivyleaf morning glory (Ipomoea hederacea), fall panicum (Panicum dichotomiflorum) and large crabgrass (Digitaria sanguinalis The test field was over seeded with weed seed obtained from the University of Georgia prior to corn planting. Treatments were applied as a broadcast treatment when corn had reached physiological growth stage V3 and weeds were in the 2-4″ size range. Treatments were applied at various rates ranging from about 1 ounce per acre to about 22 ounces per acre. Tables 9-10 show the % weed control when the weeds are treated with glufosinate. Tables 11-12 show the % weed control when the weeds are treated with glyphosphate. Tables 13-14 show the % weed control when the weeds are treated with mesotrione.
# ivyleaf morning glory = assay: as above; assay type: in vivo, Ipomoea hederacea
# Source text: as §4, §2, §5
# large crabgrass [5] = assay: as above; assay type: in vivo, Digitaria sanguinalis
# Source text: as §4, §2, §5
# palmer amaranth [6] = assay: as above; assay type: in vivo, Amaranthus palmeri
# Source text: as §4, §2, §5
# [7] = 7 days, acetochlor 0.5 part/acre
# [8] = 7 days, acetochlor 2 parts/acre
# [9] = 14 days, acetochlor 0.5 part/acre
# [10] = 14 days, acetochlor 1 part/acre
# [11] = 14 days, acetochlor 2 parts/acre
# [12] = 21 days, acetochlor 0.5 part/acre
# [13] = 21 days, acetochlor 1 part/acre
# [14] = 21 days, acetochlor 2 parts/acre
# [15] = 28 days, acetochlor 0.5 part/acre
# [16] = 28 days, acetochlor 1 part/acre
# [17] = 28 days, acetochlor 2 parts/acre
# [18] = 7 days, glufosinate 5.5 ounces/acre
# [19] = 7 days, glufosinate 11 ounces/acre
# [20] = 7 days, glufosinate 22 ounces/acre
# [21] = 14 days, glufosinate 5.5 ounces/acre
# [22] = 14 days, glufosinate 11 ounces/acre
# [23] = 14 days, glufosinate 22 ounces/acre
compound,measurement,setting,value
"CCOCN(C(=O)CCl)c1c(C)cccc1CC [Acetochlor, acetochlor]",% WEED CONTROL FOR PALMER AMARANTH,palmer amaranth [1]; [7],87.0%
same,% WEED CONTROL FOR PALMER AMARANTH,"palmer amaranth [1]; 7 days, acetochlor 1 part/acre",88.5%
same,% WEED CONTROL FOR PALMER AMARANTH,palmer amaranth [1]; [8],93.3%
same,% WEED CONTROL FOR PALMER AMARANTH,palmer amaranth [1]; [9],82.3%
same,% WEED CONTROL FOR PALMER AMARANTH,palmer amaranth [1]; [10],87.0%
same,% WEED CONTROL FOR PALMER AMARANTH,palmer amaranth [1]; [11],97.7%
same,% WEED CONTROL FOR PALMER AMARANTH,palmer amaranth [1]; [12],61.7%
same,% WEED CONTROL FOR PALMER AMARANTH,palmer amaranth [1]; [13],81.0%
same,% WEED CONTROL FOR PALMER AMARANTH,palmer amaranth [1]; [14],90.0%
same,% WEED CONTROL FOR PALMER AMARANTH,palmer amaranth [1]; [15],44.5%
same,% WEED CONTROL FOR PALMER AMARANTH,palmer amaranth [1]; [16],67.4%
same,% WEED CONTROL FOR PALMER AMARANTH,palmer amaranth [1]; [17],99.7%
same,% WEED CONTROL FOR LARGE CRABGRASS,large crabgrass [2]; [7],69.5%
same,% WEED CONTROL FOR LARGE CRABGRASS,"large crabgrass [2]; 7 days, acetochlor 1 part/acre",74.5%
same,% WEED CONTROL FOR LARGE CRABGRASS,large crabgrass [2]; [8],87.0%
same,% WEED CONTROL FOR LARGE CRABGRASS,large crabgrass [2]; [9],45.8%
same,% WEED CONTROL FOR LARGE CRABGRASS,large crabgrass [2]; [10],49.0%
same,% WEED CONTROL FOR LARGE CRABGRASS,large crabgrass [2]; [11],74.5%
same,% WEED CONTROL FOR LARGE CRABGRASS,large crabgrass [2]; [12],45.3%
same,% WEED CONTROL FOR LARGE CRABGRASS,large crabgrass [2]; [13],43.0%
same,% WEED CONTROL FOR LARGE CRABGRASS,large crabgrass [2]; [14],73.3%
same,% WEED CONTROL FOR LARGE CRABGRASS,large crabgrass [2]; [15],47.8%
same,% WEED CONTROL FOR LARGE CRABGRASS,large crabgrass [2]; [16],48.0%
same,% WEED CONTROL FOR LARGE CRABGRASS,large crabgrass [2]; [17],92.1%
same,% WEED CONTROL FOR FALL PANICUM,fall panicum [3]; [7],65.5%
same,% WEED CONTROL FOR FALL PANICUM,"fall panicum [3]; 7 days, acetochlor 1 part/acre",69.3%
same,% WEED CONTROL FOR FALL PANICUM,fall panicum [3]; [8],87.3%
same,% WEED CONTROL FOR FALL PANICUM,fall panicum [3]; [9],49.3%
same,% WEED CONTROL FOR FALL PANICUM,fall panicum [3]; [10],53.0%
same,% WEED CONTROL FOR FALL PANICUM,fall panicum [3]; [11],78.0%
same,% WEED CONTROL FOR FALL PANICUM,fall panicum [3]; [12],37.6%
same,% WEED CONTROL FOR FALL PANICUM,fall panicum [3]; [13],40.9%
same,% WEED CONTROL FOR FALL PANICUM,fall panicum [3]; [14],81.3%
same,% WEED CONTROL FOR FALL PANICUM,fall panicum [3]; [15],60.0%
same,% WEED CONTROL FOR FALL PANICUM,fall panicum [3]; [16],57.3%
same,% WEED CONTROL FOR FALL PANICUM,fall panicum [3]; [17],88.0%
"CP(=O)(O)CCC(N)C(=O)O (stereo not drawn) [Glufosinate, glufosinate]",% WEED CONTROL FOR FALL PANICUM,fall panicum [4]; [18],100.0%
same,% WEED CONTROL FOR FALL PANICUM,fall panicum [4]; [19],99.5%
same,% WEED CONTROL FOR FALL PANICUM,fall panicum [4]; [20],100.0%
same,% WEED CONTROL FOR FALL PANICUM,fall panicum [4]; [21],83.3%
same,% WEED CONTROL FOR FALL PANICUM,fall panicum [4]; [22],92.7%
same,% WEED CONTROL FOR FALL PANICUM,fall panicum [4]; [23],95.5%
same,% WEED CONTROL FOR IVYLEAF MORNINGLORY,ivyleaf morning glory; [18],16.5%
same,% WEED CONTROL FOR IVYLEAF MORNINGLORY,ivyleaf morning glory; [19],52.3%
same,% WEED CONTROL FOR IVYLEAF MORNINGLORY,ivyleaf morning glory; [20],70.1%
same,% WEED CONTROL FOR IVYLEAF MORNINGLORY,ivyleaf morning glory; [21],5.1%
same,% WEED CONTROL FOR IVYLEAF MORNINGLORY,ivyleaf morning glory; [22],41.2%
same,% WEED CONTROL FOR IVYLEAF MORNINGLORY,ivyleaf morning glory; [23],64.0%
same,% WEED CONTROL FOR LARGE CRABGRASS,large crabgrass [5]; [18],100.0%
same,% WEED CONTROL FOR LARGE CRABGRASS,large crabgrass [5]; [19],100.0%
same,% WEED CONTROL FOR LARGE CRABGRASS,large crabgrass [5]; [20],100.0%
same,% WEED CONTROL FOR LARGE CRABGRASS,large crabgrass [5]; [21],91.8%
same,% WEED CONTROL FOR LARGE CRABGRASS,large crabgrass [5]; [22],99.5%
same,% WEED CONTROL FOR LARGE CRABGRASS,large crabgrass [5]; [23],100.0%
same,% WEED CONTROL FOR PALMER AMARANTH,palmer amaranth [6]; [18],51.5%
same,% WEED CONTROL FOR PALMER AMARANTH,palmer amaranth [6]; [19],77.9%
same,% WEED CONTROL FOR PALMER AMARANTH,palmer amaranth [6]; [20],82.6%
same,% WEED CONTROL FOR PALMER AMARANTH,palmer amaranth [6]; [21],29.0%
same,% WEED CONTROL FOR PALMER AMARANTH,palmer amaranth [6]; [22],69.3%
same,% WEED CONTROL FOR PALMER AMARANTH,palmer amaranth [6]; [23],76.1%
